Measured values: patent US8835476B2, “Synthesis of novel antimicrobials” (priority 2005, dated 2014)
In brackets after ≈: the same amount, converted by molar mass. Where two headings read alike, the source gives them in different places.

Key:
Assay type in all cases: cell-based
A. anitratus ATCC 19606 = assay: Broth microdilution MIC, ATCC strains; conditions: Acinetobacter calcoaceticus, ATCC19606; A. anitratus ATCC 19606; read-out: MIC (growth inhibition, microdilution method)
From the text: (§1) All clinical isolates tested were from The North American Urinary Tract Infection Collaborative Alliance (NAUTICA) which is a UTI surveillance study involving 40 medical centres (30 from the US and 10 from Canada). Each centre submitted up to 50 consecutive outpatient midstream urine isolates. All isolates were deemed significant urinary tract pathogens by individual laboratory criteria and identified to the species level by each laboratory's existing protocol. Isolates were transported to the coordinating laboratory (Health Sciences Centre, Winnipeg, Canada) on charcoal swabs. Only one isolate per patient was accepted. Upon receipt, isolates were cultured by the coordinating laboratory, stocked in skim milk, and stored at −80° C. awaiting reference antibiotic susceptibility testing. Elementary demographic information was also compiled for each isolate. Isolates were selected randomly from the above pool to represent 18 different species of Enterobacteriaceae and non-Enterobacteriaceae. An average of 5 strains of each species were tested for a total of 93 organisms. In addition, 23 reference (ATCC) [both gram negative and gram positive] strains were tested.
(§2) Susceptibilities to the compounds were determined using the National Committee for Clinical Laboratory Standards (NCCLS) M7-A6 broth microdilution method. […] DMSO controls were incorporated into the panel to mimic the quantity of DMSO used in dissolving some of the compounds at the higher concentrations. Each final panel well volume was 100 μl with a bacterial inoculum of 5×10^5 colony forming units (CFU)/ml. Panels were read following 16 to 20 hours of incubation at 35° C. in ambient air. The minimum inhibitory concentration (MIC) was defined as the lowest concentration of antimicrobial inhibiting visible growth. Quality control (QC) was performed using four ATCC QC organisms that were run with every batch set up to insure reproducibility.

E. cloacae ATCC 23355 = assay: Broth microdilution MIC, ATCC strains; conditions: Enterobacter cloacae
From the text: as §1, §2

E. coli ATCC 25922 = assay: Broth microdilution MIC, ATCC strains; conditions: Escherichia coli
From the text: as §1, §2

E. faecalis ATCC 29212 = assay: Broth microdilution MIC, ATCC strains; conditions: Enterococcus faecalis, read-out: MIC (growth inhibition, microdilution method)
From the text: as §1, §2

K. oxytoca ATCC 49131 = assay: Broth microdilution MIC, ATCC strains; conditions: Klebsiella oxytoca
From the text: as §1, §2

K. pneumoniae ATCC 13883 = assay: Broth microdilution MIC, ATCC strains; conditions: Klebsiella pneumoniae
From the text: as §1, §2

MRSA ATCC 33591 = assay: Broth microdilution MIC, ATCC strains; conditions: Staphylococcus aureus; MRSA ATCC 33591; read-out: MIC (growth inhibition, microdilution method)
From the text: as §1, §2

P. mirabilis ATCC 29245 = assay: Broth microdilution MIC, ATCC strains; conditions: Proteus mirabilis
From the text: as §1, §2

S. marcescens ATCC 8100 = assay: Broth microdilution MIC, ATCC strains; conditions: Serratia marcescens
From the text: as §1, §2

[1] = test system: S. saprophyticus ATCC 15305; assay: Broth microdilution MIC, ATCC strains; conditions: Staphylococcus saprophyticus
From the text: as §1, §2

S. warneri ATCC 27836 = assay: Broth microdilution MIC, ATCC strains; conditions: Staphylococcus warneri
From the text: as §1, §2

P. rettgeri CAP = assay: Broth microdilution MIC, reference strains; conditions: Providencia rettgeri, read-out: MIC (growth inhibition, microdilution method)
From the text: as §1, §2

[2] = test system: B. cepacia clinical isolates; assay: Broth microdilution MIC, clinical isolate strains (NAUTICA); conditions: clinical isolates, one table line per isolate; unit assumed
From the text: as §1, §2

[3] = test system: C. amalonaticus clinical isolates; assay: as above; conditions: clinical isolates, one table line per isolate; unit assumed
From the text: as §1, §2

[4] = test system: C. freundii clinical isolates; assay: as above; conditions: clinical isolates, one table line per isolate; in µg/mL (unit assumed)
From the text: as §1, §2

[5] = test system: C. koseril clinical isolates; assay: as above; conditions: clinical isolates, one table line per isolate; unit assumed
From the text: as §1, §2

[6] = test system: E. aerogenes clinical isolates; assay: as above; conditions: clinical isolates, one table line per isolate; unit assumed
From the text: as §1, §2

[7] = test system: E. cloacae clinical isolates; assay: as above; conditions: clinical isolates, one table line per isolate; unit assumed
From the text: as §1, §2

[8] = test system: E. coli clinical isolates; assay: as above; conditions: clinical isolates, one table line per isolate; unit assumed
From the text: as §1, §2

[9] = test system: K. oxytoca clinical isolates; assay: as above; conditions: clinical isolates, one table line per isolate; unit assumed
From the text: as §1, §2

[10] = test system: K. pneumoniae clinical isolates; assay: as above; conditions: clinical isolates, one table line per isolate; unit assumed
From the text: as §1, §2

[11] = test system: M. morganii clinical isolates; assay: as above; conditions: clinical isolates, one table line per isolate; unit assumed
From the text: as §1, §2

[12] = test system: P. mirabilis clinical isolates; assay: as above; conditions: clinical isolates, one table line per isolate; unit assumed
From the text: as §1, §2

[13] = test system: P. retgerri clinical isolates; assay: as above; conditions: clinical isolates, one table line per isolate; unit assumed
From the text: as §1, §2

[14] = test system: P. vulgaris clinical isolates; assay: as above; conditions: clinical isolates, one table line per isolate; unit assumed
From the text: as §1, §2

[15] = test system: S. liquifaciens clinical isolates; assay: as above; conditions: clinical isolates, one table line per isolate; unit assumed
From the text: as §1, §2

[16] = test system: S. marcescens clinical isolates; assay: as above; conditions: clinical isolates, one table line per isolate; unit assumed
From the text: as §1, §2

[17] = test system: S. maltophilia clinical isolates; assay: as above; conditions: clinical isolates, one table line per isolate; unit assumed
From the text: as §1, §2

[18] = ATCC29212, E. faecalis ATCC 29212
[19] = ATCC29212, E. faecalis, ATCC number not given

SMILES | MIC (A. anitratus ATCC 19606) [µg/mL] | MIC (E. faecalis ATCC 29212; [18]) [µg/mL] | MIC (E. faecalis ATCC 29212; [19]) [µg/mL] | MIC (MRSA ATCC 33591) [µg/mL] | MIC, C. AMALONATICUS [3] [µg/mL] | MIC, C. FREUNDII [4] | MIC, C. KOSERI [5] [µg/mL] | MIC, E. AEROGENES [6] [µg/mL] | MIC, E. CLOACAE [7] [µg/mL] | MIC, E. COLI [8] [µg/mL] | MIC, K. OXYTOCA [9] [µg/mL] | MIC, K. PNEUMONIAE [10] [µg/mL] | MIC, M. MORGANII [11] [µg/mL] | MIC, P. MIRABILIS [12] [µg/mL] | MIC, P. RETTGERI [13] [µg/mL] | MIC, P. VULGARIS [14] [µg/mL] | MIC, S. LIQUEFACIENS [15] [µg/mL] | MIC, S. MARCESCENS [16] [µg/mL] | also measured
COC(=O)c1cc(-c2nnn(C)n2)c(C(=O)OC)s1 [DNM-114, 3-(2-methyl-2H-tetrazol-5-yl)-thiophene-2,5-dicarboxylic acid dimethyl ester] | 64 (≈ 227 µM) | 8 (≈ 28.3 µM) | 8 (≈ 28.3 µM) | 256 (≈ 907 µM) | 128 (≈ 453 µM) | 128 | 128 (≈ 453 µM) | 128 (≈ 453 µM) | 128 (≈ 453 µM) | 128 (≈ 453 µM) | 128 (≈ 453 µM) | 128 (≈ 453 µM) | 128 (≈ 453 µM) | 128 (≈ 453 µM) | 128 (≈ 453 µM) | 128 (≈ 453 µM) | 128 (≈ 453 µM) | 128 (≈ 453 µM) | MIC (E. cloacae ATCC 23355; ATCC23355, read-out: MIC (growth inhibition, microdilution method)): 128 µg/mL (≈ 453 µM); MIC (E. coli ATCC 25922; ATCC25922, read-out: MIC (growth inhibition, microdilution method)): 128 µg/mL (≈ 453 µM); MIC (K. oxytoca ATCC 49131; ATCC49131, read-out: MIC (growth inhibition, microdilution method)): 128 µg/mL (≈ 453 µM); MIC (K. pneumoniae ATCC 13883; ATCC13883, read-out: MIC (growth inhibition, microdilution method)): 128 µg/mL (≈ 453 µM); MIC (P. mirabilis ATCC 29245; ATCC29245, read-out: MIC (growth inhibition, microdilution method)): 128 µg/mL (≈ 453 µM); MIC (S. marcescens ATCC 8100; ATCC8100, read-out: MIC (growth inhibition, microdilution method)): 128 µg/mL (≈ 453 µM); MIC ([1]; ATCC15305, read-out: MIC (growth inhibition, microdilution method)): 128 µg/mL (≈ 453 µM); MIC (S. warneri ATCC 27836; ATCC27836, read-out: MIC (growth inhibition, microdilution method)): 128 µg/mL (≈ 453 µM); MIC (P. rettgeri CAP): 128 µg/mL (≈ 453 µM); MIC, B. CEPACIA [2]: 64 µg/mL (≈ 227 µM)
CCOC(=O)c1cc(-c2nnn[nH]2)c(-c2ccc(F)cc2)s1 [DNM-124, 5-(4-Fluoro-phenyl)-4-(1H-tetrazol-5-yl)-thiophene-2-carboxylic acid ethyl ester] | 64 (≈ 201 µM) | > 64 | > 64 | > 64 | > 64 | >64 | > 64 | > 64 | > 64 | > 64 | > 64 | > 64 | > 64 | > 64 | > 64 | > 64 | > 64 | > 64 | MIC (E. cloacae ATCC 23355; ATCC23355, E. cloacae ATCC 23355, read-out: MIC (growth inhibition, microdilution method)): > 64 µg/mL; MIC (E. coli ATCC 25922; ATCC25922, E. coli ATCC 25922, read-out: MIC (growth inhibition, microdilution method)): > 64 µg/mL; MIC (K. oxytoca ATCC 49131; ATCC49131, K. oxytoca ATCC 49131, read-out: MIC (growth inhibition, microdilution method)): > 64 µg/mL; MIC (K. pneumoniae ATCC 13883; ATCC13883, K. pneumoniae ATCC 13883, read-out: MIC (growth inhibition, microdilution method)): > 64 µg/mL; MIC (P. mirabilis ATCC 29245; ATCC29245, P. mirabilis ATCC 29245, read-out: MIC (growth inhibition, microdilution method)): > 64 µg/mL; MIC (S. marcescens ATCC 8100; ATCC8100, S. marcescens ATCC 8100, read-out: MIC (growth inhibition, microdilution method)): > 64 µg/mL; MIC ([1]; ATCC15305, S. saprophyticus ATCC 15305, read-out: MIC (growth inhibition, microdilution method)): > 64 µg/mL; MIC (S. warneri ATCC 27836; ATCC27836, S. warneri ATCC 27836, read-out: MIC (growth inhibition, microdilution method)): > 64 µg/mL; MIC (P. rettgeri CAP; P. rettgeri (CAP in Table 1)): > 64 µg/mL; MIC, S. MALTOPHILIA [17]: > 64 µg/mL
